This note sets out measurements from patent US4162325A, “N-substituted lactams” (UCB, Societe Anonyme, priority 1976, dated 1979).

“And” between values parts separate entries of the source, which are not always exact repeats. Equal values may be shown once. Read-outs that look alike come from different tables or passages of the source.

For series [1], the system named is mice. Briefly: protection against aggressions of the hypoxic type (lethality induced by oxydipentonium chloride) in mice. It is filed as in vivo. The conditions noted are these: 1 h, mouse, intraperitoneal, one hour before curarizer, read-out: Proportion of survivors, treated animals; for responders at 10 µM, 10 µmol/kg: 0.01 mM/kg (B 2.6, G 2.6, H 2.4 mg/kg), control B 1/10, G 1/10, H 2/10; for responders at 100 µM, 100 µmol/kg: 0.1 mM/kg (F 24, G 25.5, H 24, I 30, J 21, K 23, L 23 mg/kg), control 1/10, F 0/10; for responders at 320 µM, 320 µmol/kg: 0.32 mM/kg (A 64, I 95, J 68, Piracetam 45 mg/kg), control 1/10, Piracetam 0/10. Here is the method:
Protection against aggressions of the hypoxic type is shown by a reduction of the lethality induced by a curarizer, the duration of action of which is short, namely oxydipentonium chloride (Brevatonal). At the doses used, this curarizer brings about a respiratory depression which, in turn, brings about a hypoxi-hypercapnic syndrome. A compound capable of protecting the brain during this brief period of hypoxia ensures survival. The compounds are administered to groups of 10 mice one hour before the injection of the curarizer; in a parallel test, a control group of 10 mice are given physiological salt solution before the curarizer. This test has also been developed in our laboratories (see, for the principle of this test, S. LEVIS et al.; Arch. Int. Pharmacodyn. Therap, 93,(1953),1,46-54).
Intraperitoneal administration of compounds of general formula (I), namely, products A, B, F, G, H, I, J, K, L, gives the results shown in Table III: […]

Series [2] in a line: toxicity, LD50 in rat. The conditions noted are these: in vivo. From the text:
The tested compounds have a remarkably low toxicity. Table V gives the toxicities, after intravenous administration, of some of the compounds of the present invention: […]

Series [3] relates to papillary muscle isolated from the rabbit heart. In words: cardiac activity on isolated papillary muscle of rabbit heart. The conditions noted are these: for activation at 100 µg/mL / activation at 10 µg/mL: Oryctolagus cuniculus, read-out: percentage increase of the tension measured. From the text:
This has been shown by the method employing the papillary muscle isolated from the rabbit heart, according to the method of H. G. Schoepke and F. E. Shiddeman, J. Pharmacol. Exptl. Therap. 133,(1961), 171.
The reactivity of various compounds of general formula (I) after each experiment is checked against theophylline. Table IV gives some of the results observed, expressed as a percentage increase of the tension measured.

In series [4] the test system is rats. In words: active avoidance test, memory retention (paw pressure withdrawal) in rats. Type of series: in vivo, rat. As to conditions: for minimal effective dose: sc, read-out: Active dose (minimum dose which reduces the stimulus to below 11 graduations). From the text:
(A) The action on mnemic processes is first shown by the ability of the compounds to improve a type of memory retention in rats. The principle of the active avoidance test (see M. GREINDL and S. PREAT, Arch. Int. Pharmacodyn. Therap. 223,(1976),(1),168-171) developed in our laboratories and used for this purpose may be described as follows: the reaction of withdrawal of a rat's paw when subjected to an increasing and measured pressure is observed. The pressure at which the withdrawal reaction takes place is called the reaction threshold. This threshold is expressed by the number of graduations of the scale of the apparatus used (Analgesy meter UGO BASILE - Milano) and thus corresponds to the minimum pressure which brings about withdrawal when applied to the animal's paw. It is read directly from the scale of the apparatus used.
Inversely, animals treated with a substance having a positive effect on the mnemic processes (for example, piracetam) show a significant degree of retention: the stimulus at which the rats react by a reflex of avoidance is statistically lower than that of the control animals. A minimum of 20 rats are used per test (10 treated rats and 10 control rats) and the active dose is defined as the minimum dose which reduces the stimulus to below 11 graduations.
Subcutaneous administration of compounds of general formula (I), namely compounds A, G, H, I, J, K, L, N, O, P, Q, R, V, W, give, under these conditions, the effects indicated in Table I below.

For the compound `CCCCNC(=O)CNC(=O)CN1CCCC1=O` [Compound B, N-n-Butyl-2-(2-oxo-1-pyrrolidineacetamido)-acetamide], the responders at 10 µM, 10 µmol/kg in series [1] was 60%. Moreover, the responders at 32 µM, 8.2 mg/kg in series [1] (ip, 0.032 mM/kg (B 8.2 mg/kg), control 1/10) was 80%. Also, the median lethal dose (LD50) in series [2] (intravenous) was > 4000 µmol/kg and > 1020 mg/kg.
As for `CN(CC(=O)Nc1ccccc1)C(=O)CN1CCCC1=O` [Compound E, 2-(N-Methyl-2-oxo-1-pyrrolidineacetamido)-N-phenylacetamide], the activation at 100 µg/mL in series [3] was found to be 22%.
For `CC(C)NC(=O)CNC(=O)CN1CCCC1=O` [Compound F, N-isopropyl-2-(2-oxo-1-pyrrolidineacetamido)-acetamide], the responders at 100 µM, 100 µmol/kg in series [1] came out at 40%. In addition, the LD50 in series [2] (intravenous) was > 3000 µmol/kg and > 723 mg/kg.
In the case of `CCC(C(=O)NCC(N)=O)N1C(=O)CCC1(C)C` (stereo not drawn) [Compound G, 2-(alpha-ethyl-5,5-dimethyl-2-oxo-1-pyrrolidineacetamido)-acetamide], in series [1], the responders at 10 µM, 10 µmol/kg came out at 40% and the responders at 100 µM, 100 µmol/kg amounted to 60%. In series [4] (Rattus norvegicus, 24 h), the minimal effective dose was 0.51 mg/kg and 2 µmol/kg. Further, the “activity compared with piracetam in the active avoidance test” value (“activity compared with piracetam” below) in series [4] (rat, subcutaneous) is on record as “superior to that of piracetam”. Moreover, in series [2] (intravenous), the LD50 was > 2800 µmol/kg and > 714 mg/kg.
Regarding `CC(C(=O)NCC(N)=O)N1C(=O)CCC1(C)C` (stereo not drawn) [Compound H, 2-(alpha,5,5-trimethyl-2-oxo-1-pyrrolidineacetamido)-acetamide], in series [1], the responders at 10 µM, 10 µmol/kg was 60% and the responders at 100 µM, 100 µmol/kg was 100%. For the same compound, the activation at 10 µg/mL in series [3] is 10%. In addition, the action against anoxia entry in series [3] (same test (isolated papillary muscle, rabbit heart)) is “protective action against anoxia”. Further, the minimal effective dose in series [4] (Rattus norvegicus, 24 h) was 0.0024 mg/kg and 0.01 µmol/kg. In series [4] (rat, subcutaneous), the “activity compared with piracetam” value is recorded as “superior to that of piracetam”. Further, the LD50 in series [2] (intravenous) is > 3100 µmol/kg and > 747 mg/kg.
Take `CCCNC(=O)CNC(=O)C(CC)N1C(=O)CCC1(C)C` (stereo not drawn) [Compound I, 2-(alpha-ethyl-5,5-dimethyl-2-oxo-1-pyrrolidineacetamido)-N-propylacetamide]: in series [1], the responders at 100 µM, 100 µmol/kg is 50% and the responders at 320 µM, 320 µmol/kg was 80%. Moreover, in series [4] (Rattus norvegicus, 24 h), the minimal effective dose was 5.94 mg/kg and 20 µmol/kg. Also, in series [4] (rat, subcutaneous), the “activity compared with piracetam” value was “superior to that of piracetam”. In addition, in series [2] (ip, intraperitoneal), the LD50 is > 2500 µmol/kg and > 743 mg/kg.
With `CC(C(=O)NCC(N)=O)N1CCCC1=O` (stereo not drawn) [Compound J, 2-(alpha-methyl-2-oxo-1-pyrrolidineacetamido)-acetamide], in series [1], the responders at 100 µM, 100 µmol/kg was 60% and the responders at 320 µM, 320 µmol/kg was determined as 100%. In series [4] (Rattus norvegicus, 24 h), the minimal effective dose is 0.21 mg/kg and 1 µmol/kg. The “activity compared with piracetam” value in series [4] (rat, subcutaneous) is listed as “superior to that of piracetam”. The LD50 in series [2] (intravenous) is > 2600 µmol/kg and > 554 mg/kg.
For `CCC(C(=O)NCC(N)=O)N1CCCC1=O` (stereo not drawn) [Compound K, 2-(alpha-ethyl-2-oxo-1-pyrrolidineacetamido)-acetamide], the responders at 100 µM, 100 µmol/kg in series [1] turned out to be 70%. In addition, the activation at 100 µg/mL in series [3] was 44%. The minimal effective dose in series [4] (Rattus norvegicus, 24 h) was 4.54 mg/kg and 20 µmol/kg. Besides, the “activity compared with piracetam” value in series [4] (rat, subcutaneous) was “superior to that of piracetam”. Further, the LD50 in series [2] (intravenous) is > 2500 µmol/kg and > 568 mg/kg.
As for `NC(=O)CNC(=O)C1(N2CCCC2=O)CC1` [Compound L, 2-[1-(2-oxo-pyrrolidino)-cyclopropanecarboxamido]-acetamide], the responders at 100 µM, 100 µmol/kg in series [1] is 80%. Besides, in series [4] (Rattus norvegicus, 24 h), the minimal effective dose was 0.23 mg/kg and 1 µmol/kg. The “activity compared with piracetam” value in series [4] (rat, subcutaneous) is “superior to that of piracetam”.
For `CN(C)C(=O)CNC(=O)CN1CCCC1=O` [Compound M, N,N-ddimethyl-2-(2-oxo-1-pyrrolidineacetamido)-acetamide], in series [3], the activation at 10 µg/mL was 10%.
`CN(CC(N)=O)C(=O)CN1CCCC1=O` [Compound N, 2-(N-methyl-2-oxo-1-pyrrolidineacetamido)-acetamide]: in series [4] (Rattus norvegicus, 24 h), the minimal effective dose was 2.13 mg/kg and 10 µmol/kg. Also, the “activity compared with piracetam” value in series [4] (rat, subcutaneous) is reported as “superior to that of piracetam”.
Regarding `CNC(=O)CN(C)C(=O)CN1CCCC1=O` [Compound O, N-methyl-2-(N-methyl-2-oxo-1-pyrrolidineacetamido)-acetamide], the minimal effective dose in series [4] (Rattus norvegicus, 24 h) was 2.27 mg/kg and 10 µmol/kg. The “activity compared with piracetam” value in series [4] (rat, subcutaneous) is given as “superior to that of piracetam”.
With `CN(C)C(=O)CN(C)C(=O)CN1CCCC1=O` [Compound P, N,N-dimethyl-2-(N-methyl-2-oxo-1-pyrrolidineacetamido)-acetamide], the minimal effective dose in series [4] (Rattus norvegicus, 24 h) was 2.41 mg/kg and 10 µmol/kg. The “activity compared with piracetam” value in series [4] (rat, subcutaneous) is on record as “superior to that of piracetam”.
For the compound `CC(NC(=O)CN1CCCC1=O)C(N)=O` (centres unmarked) [Compound Q, 2-methyl-2-(2-oxo-1-pyrrolidineacetamido)-acetamide], the minimal effective dose in series [4] (Rattus norvegicus, 24 h) is 2.13 mg/kg and 10 µmol/kg. Moreover, the “activity compared with piracetam” value in series [4] (rat, subcutaneous) was “superior to that of piracetam”.
As to `NC(=O)C(NC(=O)CN1CCCC1=O)c1ccccc1` (centres unmarked) [Compound R, 2-(2-oxo-1-pyrrolidineacetamido)-2-phenylacetamide], in series [4] (Rattus norvegicus, 24 h), the minimal effective dose is 2.75 mg/kg and 10 µmol/kg. Besides, the “activity compared with piracetam” value in series [4] (rat, subcutaneous) was “superior to that of piracetam”.
On to `NC(=O)CNC(=O)CN1CCCCCC1=O` [Compound V, 2-(hexahydro-2-oxo-1H-azepine-1-acetamido)-acetamide], for which the “activity compared with piracetam” value in series [4] (rat, subcutaneous) is reported as “superior to that of piracetam”. The minimal effective dose in series [4] (rat, subcutaneous, tested 24 hours later) is 2.27 mg/kg and 10 µmol/kg.
`CCCCC(C(=O)NCC(N)=O)N1CCCC1=O` (stereo not drawn) [Compound W, 2-(alpha-n-butyl-2-oxo-1-pyrrolidineacetamido)-acetamide]: the minimal effective dose in series [4] (Rattus norvegicus, 24 h) is 2.55 mg/kg and 10 µmol/kg. The “activity compared with piracetam” value in series [4] (rat, subcutaneous) was “superior to that of piracetam”.
On to `CCCCC1CCN(CC(=O)NCC(N)=O)C1=O` (centres unmarked) [Compound X, 2-(3-n-butyl-2-oxo-1-pyrrolidineacetamido)-acetamide], for which the activation at 100 µg/mL in series [3] is 25%.
As to `Cn1c(=O)c2[nH]cnc2n(C)c1=O` [Theophylline, reference compound], in series [3] (100 μg/ml), the activation at 100 µg/mL was found to be 38%.

The LD50 is the dose expected to kill half of the subjects tested.
